# Reference: US10273236B2, “Macrocyclic factor XIa inhibitors bearing heterocyclic groups” (Bristol-Myers Squibb Company, priority 2014, dated 2019)
# Counter-ions that a name gives are not always drawn.
# Key:
# [1] = target: T1, purified human Factor XIa (Homo sapiens, UniProt P03951); experiment: Factor XIa inhibition assay, chromogenic substrate S-2366 (Ki); type: biochemical
# T1 construct: purchased Haematologic Technologies
# Description: (§1) The effectiveness of compounds of the present invention as inhibitors of the coagulation Factors XIa, VIIa, IXa, Xa, XIIa, plasma kallikrein or thrombin, can be determined using a relevant purified serine protease, respectively, and an appropriate synthetic substrate. The rate of hydrolysis of the chromogenic or fluorogenic substrate by the relevant serine protease was measured both in the absence and presence of compounds of the present invention. […] A decrease in the rate of absorbance or fluorescence change in the presence of inhibitor is indicative of enzyme inhibition. Such methods are known to one skilled in the art. The results of this assay are expressed as the inhibitory constant, Ki.
# Factor XIa determinations were made in 50 mM HEPES buffer at pH 7.4 containing 145 mM NaCl, 5 mM KCl, and 0.1% PEG 8000 (polyethylene glycol; JT Baker or Fisher Scientific). Determinations were made using purified human Factor XIa at a final concentration of 25-200 pM (Haematologic Technologies) and the synthetic substrate S-2366 (pyroGlu-Pro-Arg-pNA; Chromogenix or AnaSpec) at a concentration of 0.0002-0.001 M.
# (§2) Values of Ki were determined by allowing the protease to react with the substrate in the presence of the inhibitor.
# (§3) Reactions were allowed to go for periods of 20-180 minutes (depending on the protease) and the velocities (rate of absorbance or fluorescence change versus time) were measured.
# (§4) The following relationships were used to calculate Ki values: (Vmax*S)/(Km+S) (vo−vs)/vs=I/(Ki(1+S/Km)) for a competitive inhibitor with one binding site; or vs/vo=A+((B−A)/1+((IC50/(I)^n))); and Ki=IC50/(1+S/Km) for a competitive inhibitor where: […]
# [2] = target: T2, purified human plasma kallikrein (Homo sapiens, UniProt P03952); experiment: Plasma kallikrein inhibition assay, chromogenic substrate S-2302 (Ki); type: biochemical
# T2 construct: Plasma prekallikrein is a zymogen of a trypsin-like serine protease; purchased Enzyme Research Laboratories
# Description: as §1
# Plasma kallikrein determinations were made in 0.1 M sodium phosphate buffer at a pH of 7.5 containing 0.1-0.2 M sodium chloride and 0.5% PEG 8000. Determinations were made using purified human plasma kallikrein (Enzyme Research Laboratories) at a final assay concentration of 200 pM and the synthetic substrate S-2302 (H-(D)-Pro-Phe-Arg-pNA; Chromogenix) at a concentration of 0.00008-0.0004 M.
# as §2, §3, §4
# T2 sequence (P03952 391-638 limits assumed): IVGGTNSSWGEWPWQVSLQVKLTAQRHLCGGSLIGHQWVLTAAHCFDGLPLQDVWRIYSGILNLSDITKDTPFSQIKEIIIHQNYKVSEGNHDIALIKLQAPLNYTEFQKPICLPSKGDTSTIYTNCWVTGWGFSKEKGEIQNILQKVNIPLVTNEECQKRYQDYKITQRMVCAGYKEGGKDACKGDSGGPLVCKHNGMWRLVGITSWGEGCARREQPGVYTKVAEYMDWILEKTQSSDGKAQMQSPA
# T2 sequence (P03952 20-390 partner limits assumed): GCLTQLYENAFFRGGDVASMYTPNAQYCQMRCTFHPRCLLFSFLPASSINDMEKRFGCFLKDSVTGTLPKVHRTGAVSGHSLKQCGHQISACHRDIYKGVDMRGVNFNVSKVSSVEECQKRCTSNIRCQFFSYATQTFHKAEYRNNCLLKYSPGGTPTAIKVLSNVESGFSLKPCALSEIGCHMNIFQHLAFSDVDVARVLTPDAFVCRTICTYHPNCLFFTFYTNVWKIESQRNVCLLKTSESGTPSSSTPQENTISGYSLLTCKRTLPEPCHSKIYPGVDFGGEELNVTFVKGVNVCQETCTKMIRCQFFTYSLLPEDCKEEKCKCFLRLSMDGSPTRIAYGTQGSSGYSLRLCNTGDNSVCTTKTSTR
# T1 sequence (P03951 388-625 limits assumed): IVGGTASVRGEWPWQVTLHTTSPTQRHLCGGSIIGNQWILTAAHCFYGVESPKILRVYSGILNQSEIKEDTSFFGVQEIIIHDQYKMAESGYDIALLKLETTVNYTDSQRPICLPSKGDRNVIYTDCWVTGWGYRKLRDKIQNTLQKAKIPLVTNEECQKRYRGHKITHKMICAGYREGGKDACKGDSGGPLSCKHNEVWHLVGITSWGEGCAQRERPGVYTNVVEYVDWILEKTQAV
# T1 sequence (P03951 19-387 partner limits assumed): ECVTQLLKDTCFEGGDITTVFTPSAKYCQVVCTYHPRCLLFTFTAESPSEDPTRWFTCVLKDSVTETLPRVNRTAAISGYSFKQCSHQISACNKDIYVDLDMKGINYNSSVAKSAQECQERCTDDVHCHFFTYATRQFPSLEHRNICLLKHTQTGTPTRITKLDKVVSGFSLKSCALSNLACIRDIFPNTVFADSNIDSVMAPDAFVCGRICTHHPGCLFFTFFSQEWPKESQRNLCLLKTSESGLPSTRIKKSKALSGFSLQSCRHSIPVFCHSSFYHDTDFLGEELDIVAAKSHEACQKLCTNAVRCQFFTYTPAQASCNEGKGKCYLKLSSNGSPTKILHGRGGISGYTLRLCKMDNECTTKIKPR
Compound,Ki [1] [nM],Ki [2] [nM]
"C[C@@H]1CCC[C@H](N2CCC(c3cc(Cl)ccc3-n3cc(Cl)nn3)=CC2=O)c2cccc(n2)-c2c(cnn2C)NC1=O [Example 43, (9R,13S)-13-{4-[5-chloro-2-(4-chloro-1H-1,2,3-triazol-1-yl)phenyl]-6-oxo-1,2,3,6-tetrahydropyridin-1-yl}-3,9-dimethyl-3,4,7,18-tetraazatricyclo[12.3.1.0^2,6]octadeca-1(18),2(6),4,14,16-pentaen-8-one]",4.1,110
"[2H]C([2H])([2H])n1ncc2c1-c1ccnc(c1)[C@@H](n1ccc(-c3cc(Cl)ccc3-n3cc(C(F)(F)F)nn3)cc1=O)CCC[C@@H](C)C(=O)N2 [Example 62, (9R,13S)-13-(4-{5-Chloro-2-[4-(trifluoromethyl)-1H-1,2,3-triazol-1-yl]phenyl}-2-oxo-1,2-dihydropyridin-1-yl)-3-(^2H3)methyl-9-methyl-3,4,7,15-tetraazatricyclo[12.3.1.0^2,6]octadeca-1(18),2(6),4,14,16-pentaen-8-one, trifluoroacetate]",0.1,6
"C[C@@H]1CCC[C@H](N2CCC(c3cc(Cl)ccc3-n3ccnn3)=CC2=O)c2cc(ccn2)-c2c(cnn2CCO)NC1=O (stereo in doubt) [Example 11, 13-{4-[5-chloro-2-(1H-1,2,3-triazol-1-yl)phenyl]-6-oxo-1,2,3,6-tetrahydropyridin-1-yl}-3-(2-hydroxyethyl)-9-methyl-3,4,7,15-tetraazatricyclo[12.3.1.0^2,6]octadeca-1(18),2(6),4,14,16-pentaen-8-one]",5.5,140
"CC(=O)c1ccc(Cl)c(F)c1C1=CC(=O)N([C@H]2CCC[C@@H](C)C(=O)Nc3cnn(C)c3-c3ccnc2c3)CC1 [Example 46, (9R,13S)-13-[4-(6-acetyl-3-chloro-2-fluorophenyl)-6-oxo-1,2,3,6-tetrahydropyridin-1-yl]-3,9-dimethyl-3,4,7,15-tetraazatricyclo[12.3.1.0^2,6]octadeca-1(18),2(6),4,14,16-pentaen-8-one]",3.5,46
"CCn1ncc2c1-c1ccnc(c1)[C@@H](N1CCC(c3c(F)ccc(Cl)c3F)=CC1=O)CCC[C@@H](C)C(=O)N2 [Example 45, (9R,13S)-13-[4-(3-chloro-2,6-difluorophenyl)-6-oxo-1,2,3,6-tetrahydropyridin-1-yl]-3-ethyl-9-methyl-3,4,7,15-tetraazatricyclo[12.3.1.0^2,6]octadeca-1(18),2(6),4,14,16-pentaen-8-one]",13,54
"C[C@@H]1CCC[C@H](N2CCC(c3cc(Cl)ccc3Br)=CC2=O)c2cc(ccn2)-c2c(cnn2C)NC1=O [Example 37, (9R,13S)-13-[4-(2-bromo-5-chlorophenyl)-6-oxo-1,2,3,6-tetrahydropyridin-1-yl]-3,9-dimethyl-3,4,7,15-tetraazatricyclo[12.3.1.0^2,6]octadeca-1(18),2(6),4,14,16-pentaen-8-one]",4.7,16
"C[C@@H]1CCC[C@H](N2CCC(c3c(OC(F)F)ccc(Cl)c3F)=CC2=O)c2cc(ccn2)-c2c(cnn2C(F)F)NC1=O [Example 21, (9R,13S)-13-{4-[3-chloro-6-(difluoromethoxy)-2-fluorophenyl]-6-oxo-1,2,3,6-tetrahydropyridin-1-yl}-3-(difluoromethyl)-9-methyl-3,4,7,15-tetraazatricyclo[12.3.1.0^2,6]octadeca-1(18),2(6),4,14,16-pentaen-8-one]",0.69,40
"C[C@@H]1CCC[C@H](N2CCC(c3cc(Cl)ccc3-n3cc(Cl)nn3)=CC2=O)c2cc(ccn2)-c2c(cnn2CC(F)F)NC1=O [Example 52, (9R,13S)-13-{4-[5-chloro-2-(4-chloro-1H-1,2,3-triazol-1-yl)phenyl]-6-oxo-1,2,3,6-tetrahydropyridin-1-yl}-3-(2,2-difluoroethyl)-9-methyl-3,4,7,15-tetraazatricyclo[12.3.1.0^2,6]octadeca-1(18),2(6),4,14,16-pentaen-8-one]",0.76,22
"C[C@@H]1CCC[C@H](N2CCC(c3cc(Cl)ccc3-n3cc(Cl)nn3)=CC2=O)c2cccc(c2)-c2c(cnn2C)NC1=O [Example 48, (9R,13S)-13-{4-[5-chloro-2-(4-chloro-1H-1,2,3-triazol-1-yl)phenyl]-6-oxo-1,2,3,6-tetrahydropyridin-1-yl}-3,9-dimethyl-3,4,7-triazatricyclo[12.3.1.0^2,6]octadeca-1(18),2(6),4,14,16-pentaen-8-one]",0.13,5.5
"C[C@@H]1CCC[C@H](N2CCC(c3c(F)ccc(Cl)c3F)=CC2=O)c2cc(ccn2)-c2c(cnn2C(F)F)NC1=O [Example 22, (9R,13S)-13-[4-(3-chloro-2,6-difluorophenyl)-6-oxo-1,2,3,6-tetrahydropyridin-1-yl]-3-(difluoromethyl)-9-methyl-3,4,7,15-tetraazatricyclo [12.3.1.0^2,6]octadeca-1(18),2(6),4,14,16-pentaen-8-one]",8,50
"C[C@H]1C(=O)Nc2cnn(C)c2-c2ccnc(c2)[C@@H](N2CCC(c3cc(Cl)ccc3-n3cc(Cl)nn3)=CC2=O)CCC1F (single isomer, unassigned; isomer b) [Example 15]",19,450
"C[C@@H]1CCC[C@H](N2CCC(c3cc(Cl)ccc3-n3cc(Cl)nn3)=CC2=O)c2cc(ccn2)-c2c(cnn2CCO)NC1=O [Example 35, (9R,13S)-13-{4-[5-chloro-2-(4-chloro-1H-1,2,3-triazol-1-yl)phenyl]-6-oxo-1,2,3,6-tetrahydropyridin-1-yl}-3-(2-hydroxyethyl)-9-methyl-3,4,7,15-tetraazatricyclo[12.3.1.0^2,6]octadeca-1(18),2(6),4,14,16-pentaen-8-one]",0.82,32
"C[C@@H]1CCC[C@H](N2CCC(c3c(C(F)F)ccc(Cl)c3F)=CC2=O)c2cc(ccn2)-c2c(cnn2C)NC1=O [Example 26, (9R,13S)-13-{4-[3-chloro-6-(difluoromethyl)-2-fluorophenyl]-6-oxo-1,2,3,6-tetrahydropyridin-1-yl}-3,9-dimethyl-3,4,7,15-tetraazatricyclo [12.3.1.0^2,6]octadeca-1(18),2(6),4,14,16-pentaen-8-one]",0.48,5
"C[C@@H]1CCC[C@H](N2CCC(c3cc(Cl)ccc3-c3cnn(C(F)F)c3)=CC2=O)c2cc(ccn2)-c2c(cnn2C)NC1=O [Example 38, (9R,13S)-13-(4-{5-chloro-2-[1-(difluoromethyl)-1H-pyrazol-4-yl]phenyl}-6-oxo-1,2,3,6-tetrahydropyridin-1-yl)-3,9-dimethyl-3,4,7,15-tetraazatricyclo[12.3.1.0^2,6]octadeca-1(18),2(6),4,14,16-pentaen-8-one]",1.8,120
"[2H]C([2H])([2H])n1ncc2c1-c1ccnc(c1)[C@@H](N1CCC(c3cc(Cl)ccc3-n3cc(C(F)(F)F)nn3)=CC1=O)CCC[C@@H](C)C(=O)N2 [Example 42, (9R,13S)-13-(4-{5-chloro-2-[4-(trifluoromethyl)-1H-1,2,3-triazol-1-yl]phenyl}-6-oxo-1,2,3,6-tetrahydropyridin-1-yl)-3-(^2H3)methyl-9-methyl-3,4,7,15-tetraazatricyclo[12.3.1.0^2,6]octadeca-1(18),2(6),4,14,16-pentaen-8-one]",0.1,7
"C[C@H]1C(=O)Nc2cnn(C)c2-c2cc(F)cc(c2)[C@@H](N2CCC(c3cc(Cl)ccc3-n3cc(Cl)nn3)=CC2=O)CCC1F (stereo partly drawn) [Example 50, (9S,13S)-13-{4-[5-chloro-2-(4-chloro-1H-1,2,3-triazol-1-yl)phenyl]-6-oxo-1,2,3,6-tetrahydropyridin-1-yl}-10,16-difluoro-3,9-dimethyl-3,4,7-triazatricyclo[12.3.1.0^2,6]octadeca-1(18),2(6),4,14,16-pentaen-8-one]",0.1,8
"CCn1ncc2c1-c1ccnc(c1)[C@@H](N1CCC(c3cc(Cl)ccc3-n3ccnn3)=CC1=O)CCC[C@@H](C)C(=O)N2 (stereo in doubt) [Example 7, 13-{4-[5-chloro-2-(1H-1,2,3-triazol-1-yl)phenyl]-6-oxo-1,2,3,6-tetrahydropyridin-1-yl}-3-ethyl-9-methyl-3,4,7,15-tetraazatricyclo[12.3.1.0^2,6]octadeca-1(18),2(6),4,14,16-pentaen-8-one]",–,41
"C[C@@H]1CCC[C@H](N2CCC(c3cc(Cl)ccc3-n3ccnn3)=CC2=O)c2cc(ccn2)-c2c(cnn2CC(F)F)NC1=O (stereo in doubt) [Example 8, 13-{4-[5-chloro-2-(1H-1,2,3-triazol-1-yl)phenyl]-6-oxo-1,2,3,6-tetrahydropyridin-1-yl}-3-(2,2-difluoroethyl)-9-methyl-3,4,7,15-tetraazatricyclo [12.3.1.0^2,6]octadeca-1(18),2(6),4,14,16-pentaen-8-one]",–,90
